Measured values as given in patent publication US11432547B2, “Inhibitors of GRB2-associated binding protein 1 (GAB1) and methods of treating cancer using the same” (Arizona Board of Regents on Behalf of the University of …, priority 2014, dated 2022).
Values joined by “and” are separate entries in the source; they are usually repeats but may differ in a detail not shown here. Equal values may be shown once. Read-outs that look alike come from different tables or passages of the source.

Tests used:
[1] = test system: GAB1 Y627 phosphorylation; test: Inhibition of GAB1 Y627 phosphorylation in T47D cells; format: cell-based; conditions: Homo sapiens, Y627, 20 μM compound 4 hr, HGF stimulated, read-out: % pGAB1 inhibition
Method: For all biological assays, hit compounds were added at 20 μM concentration directly into the culture media of the cells for 4 hr following a 16 hr incubation of T47D cells without FBS. Cells were stimulated with HGF for 20 min at 50 ng/ml. Following this treatment, cells were lysed and equal amounts of total cell lysate were loaded on a pSer^312-IRS-1/Total IRS-1 Meso Scale Discovery plate as described by the manufacturer. The plate was read using a Sector™Imager 2400A instrument (Meso Scale Discovery protein profiling system, Gaithersburg, Md.). For the measurement of GAB1 phosphorylation, T47D cells were treated as for the phosphorylation of IRS1 evaluation. […] Each experiment was performed at least three times.

[2] = test system: T47D breast cancer cell line; test: Cellular proliferation assay (MTT), T47D; format: cell-based, human; conditions: for IC50: Homo sapiens, T47D, 96 h, 4 days growth, MTT, IA: Inactive
Method: (§1) Two human breast cancer Cell lines and one normal breast cell line were used for this study: T47D ductal missing highlighted section in original pg. 26Type Culture Collection, Rockville, Md.). T47D and MDA-MB-231 cells were maintained in bulk culture in Dulbecco's modified Eagle medium (DMEM) supplemented with 10% heat-inactivated fetal bovine serum (FBS), 4.5 g/L glucose, 100 U/mL penicillin and […] streptomycin in a 5% CO2 atmosphere. MCF-10A cells were maintained in MEGM with other conditions same as the cancer cell lines. […] Cells were confirmed to be mycoplasma free by testing them with an ELISA kit (Roche-Boehringer Mannheim, Indianapolis, Ind.). The hit compounds were freshly prepared in DMSO at a stock concentration of 10 mM. For the evaluation of cellular proliferation, a standard 96-well micro-cytotoxicity assay was performed as described in reference. Briefly, the assay was set up by plating cells at 5,000-10,000 cells per well (depending on cell doubling time) for a growth period of 4 days. The identified hits were added directly to the media, dissolved in DMSO at various concentrations ranging from 1 to 200 μM. The endpoint was spectrophotometric determination of the reduction of 3-(4,5-dimethylthiazol-2-yl)-2,5-diphenyltetrazolium bromide. All assays were performed in triplicates.

[3] = test system: MDA-MB-231 breast cancer cell line; test: Cellular proliferation assay (MTT), MDA-MB-231; format: cell-based, human; conditions: for IC50: Homo sapiens, MDA-MB-231, 96 h, 4 days growth, MTT, IA: Inactive
Method: as §1

[4] = biological target: T1, GAB1 PH domain (Homo sapiens, UniProt Q13480); test: SPR binding assay, GAB1 PH domain; conditions: for Exp. ΔGbind: GAB1, derived from experimental KD or Ki, RT ln(KD)
T1 sequence (Q13480 5-116 limits assumed): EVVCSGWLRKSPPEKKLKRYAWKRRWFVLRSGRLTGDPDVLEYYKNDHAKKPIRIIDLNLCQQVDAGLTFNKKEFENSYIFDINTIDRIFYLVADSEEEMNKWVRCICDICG

[5] = biological target: T2, IRS1 PH domain (Homo sapiens, UniProt P35568); test: SPR binding assay, IRS1 PH domain (selectivity); conditions: derived from experimental KD, RT ln(KD)
T2 sequence (P35568 12-115 limits assumed): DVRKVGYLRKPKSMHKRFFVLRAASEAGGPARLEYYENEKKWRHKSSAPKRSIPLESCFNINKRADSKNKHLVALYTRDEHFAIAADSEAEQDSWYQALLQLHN
Method: The DNA sequences of human GAB1 and IRS1 PH domain (IRS1 is for selectivity evaluation) were cloned into pGEX-4T1 inducible bacterial expression plasmid (GeneStorm, Invitrogen, Carlsbad, Calif.) transformed into BL21 (DE3) E. Coli. Expression and purification of the recombinant proteins were performed. Binding assays were performed using a Biacore 2000 instrument with the Biacore Control Software v3.2 and BIAevaluation v4.1 analysis software (Biacore, Piscataway, N.J.). Briefly, the PH domain GST-fusion proteins were immobilized on a CMS Sensorchip (Biacore BR-1000-12) using Biacore's Amine Coupling Kit (Biacore BR-1000-50) to a level of 10,000 Response units (RUs). Small molecule analytes at concentrations ranging from one tenth to ten times the predicted KD were injected at a high flow rate (30 μL/min). Dimethylsulfoxide (DMSO) concentrations in all samples and running buffer were 1% (v/v) or less. […] The inventors did triplicate SPR assays for each concentration.

[6] = test system: MCF-10A breast epithelial cell line; test: Cellular proliferation assay, MCF-10A; format: cell-based, human; conditions: data not shown
Method: Two human breast cancer Cell lines and one normal breast cell line were used for this study: T47D ductal missing highlighted section in original pg. 26Type Culture Collection, Rockville, Md.). T47D and MDA-MB-231 cells were maintained in bulk culture in Dulbecco's modified Eagle medium (DMEM) supplemented with 10% heat-inactivated fetal bovine serum (FBS), 4.5 g/L glucose, 100 U/mL penicillin and […] streptomycin in a 5% CO2 atmosphere. MCF-10A cells were maintained in MEGM with other conditions same as the cancer cell lines. Cells were passaged using 0.25% trypsin and 0.02% EDTA. Cells were confirmed to be mycoplasma free by testing them with an ELISA kit (Roche-Boehringer Mannheim, Indianapolis, Ind.). The hit compounds were freshly prepared in DMSO at a stock concentration of 10 mM. For the evaluation of cellular proliferation, a standard 96-well micro-cytotoxicity assay was performed as described in reference. Briefly, the assay was set up by plating cells at 5,000-10,000 cells per well (depending on cell doubling time) for a growth period of 4 days. The identified hits were added directly to the media, dissolved in DMSO at various concentrations ranging from 1 to 200 μM. The endpoint was spectrophotometric determination of the reduction of 3-(4,5-dimethylthiazol-2-yl)-2,5-diphenyltetrazolium bromide. All assays were performed in triplicates.

[7] = test system: MDA-MB-468 cell line; test: Cellular proliferation assay, MDA-MB-468; format: cell-based; conditions: Homo sapiens, printed in MDA-MB-231 column with ** footnote, read-out: IC50 (μM), MDA-MB-468 cell line used
[8] = biological target: GAB2 PH domain (Homo sapiens, UniProt Q9UQC2); test: Follow-up experiments, GAB2 PH domain; format: binding
[9] = competitive binding vs PtdIns(3,4,5)P3 liposomes, values with asterisk, read-out: Kn or Ki (μM) GAB1, *Ki measurement

Sequence of GAB2 PH domain (Q9UQC2 6-117 limits assumed): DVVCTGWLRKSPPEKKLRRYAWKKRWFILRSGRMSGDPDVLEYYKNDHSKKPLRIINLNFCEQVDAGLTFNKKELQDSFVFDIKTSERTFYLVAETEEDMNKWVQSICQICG

Structure (SMILES) | inhibition at 20 µM [1] | IC50 [2] | IC50 [3] | other results
CCCCCCCCCCCCCCCCCCOC[C@H](COP(=O)(O)OC1C(O)[C@@H](O)C(O)C[C@H]1O)OC (stereo partly drawn) [DPIEL, reference compound] | 72% | – | – | –
O=S(=O)(NCc1csc2ccc(Cl)cc12)c1cc(S(=O)(=O)c2ccccc2)cs1 [GAB-001] | 55% | 23.7 ± 2.7 µM | 40.3 ± 1.3 µM | Exp. ΔGbind [4]: -6.91 kcal/mol; Ki [4, 9]: 9.4 µM and 9.38 µM
Cn1cnc(S(=O)(=O)Nc2ccccc2SCCS(=O)(=O)c2ccc(Cl)cc2)c1 [GAB-002] | 32% | 138 ± 6.9 µM | 143 ± 11.6 µM | –
Cc1nc(-c2cnc(S(=O)(=O)N3CCN(C4c5ccccc5-c5ccccc54)CC3)s2)cs1 [GAB-003] | 14% | 13.9 ± 0.6 µM | 85.2 ± 7.2 µM | –
O=c1[nH]nc(SCc2csc(-c3ccccc3)n2)n1Cc1ccco1 [GAB-004] | 81% | 19.4 ± 2.9 µM | 66.6 ± 4.6 µM | Exp. ΔGbind [4]: -7.78 kcal/mol
CS(=O)(=NS(=O)(=O)c1ccc(-c2ccccn2)s1)c1ccc(Cl)cc1 (stereo not drawn) [GAB-005] | 6% | > 200 µM | > 200 µM | –
Cc1cc2ncc(-c3cnc(SCCS(=O)(=O)c4ccc(Cl)cc4)nc3)c(C)n2n1 [GAB-006] | 16% | 101 ± 1.8 µM | – | –
CS(=O)(=O)CCSc1ncccc1C(=O)Sc1ccc(Cl)cc1Cl [GAB-007] | 53% | 20.1 ± 4.3 µM | 4.6 ± 0.7 µM | Exp. ΔGbind [5]: -7.93 kcal/mol; Exp. ΔGbind [4]: -6.01 kcal/mol; Ki ([4]; SPR direct binding, values without asterisk, NB: No Binding, read-out: Kn or Ki (μM) GAB1): 42.3 ± 8.9 µM
O=S(=O)(NCc1csc(-c2cccs2)n1)c1ccc(N2CCOCC2)nc1 [GAB-008] | 8% | 43.2 ± 3.2 µM | > 200 µM | –
Cc1noc(C)c1NC(=O)NCc1csc(-c2cccs2)n1 [GAB-009] | 38% | 97.6 ± 6.1 µM | 163 ± 6 µM | –
Cc1onc(-c2ccccc2)c1-c1nc(CSc2nc3ccccc3[nH]2)no1 [GAB-010] | 92% | 23.8 ± 4.2 µM | 66 ± 4.4 µM | Exp. ΔGbind [5]: -9.51 kcal/mol
Cn1c(Cc2ccsc2)nnc1SCC(=O)Nc1cc(Cl)cc(Cl)c1 [GAB-011] | 24% | > 200 µM | > 200 µM | –
O=C(O)c1ccccc1C(=O)Nc1ccccc1SCCS(=O)(=O)c1ccc(Cl)cc1 [GAB-012] | 43% | 119 ± 3.6 µM | > 200 µM | killing of T47D at 50 μM [2]: did not effectively kill; killing of MDA-MB-231 at 50 μM [3]: did not effectively kill; toxicity to MCF-10A at 100 μM [6]: toxic
COc1cc(NS(=O)(=O)c2ccc(NS(=O)(=O)c3c(C)noc3C)cc2)nc(OC)n1 [GAB-013] | 27% | > 200 µM | > 200 µM | killing of T47D at 50 μM [2]: did not effectively kill; killing of MDA-MB-231 at 50 μM [3]: did not effectively kill; toxicity to MCF-10A at 100 μM [6]: toxic
Cc1nnc(NS(=O)(=O)c2ccc(NS(=O)(=O)c3ccc4ccccc4c3)cc2)s1 [GAB-014] | 42% | 178 ± 3.9 µM | – | IC50 [7]: 69.9 ± 0.1 µM
CCCCCCCCCCCCc1ccc(S(=O)(=O)Nc2nnc(CC(=O)O)s2)cc1 [GAB-015] | – | 125 ± 5.4 µM | – | inhibition at 20 µM ([1]; T47D, 4 h): 77%; Ki [4, 9]: 13.1 ± 1.5 µM
CCCCCCCCCCCCc1ccc(S(=O)(=O)Nc2nnc(CC(=O)OCC)s2)cc1 [GAB-016] | – | – | – | targeting of GAB2 PH domain [8]: targets GAB2 PH domain; inhibition at 20 µM ([1]; T47D, 4 h): > 80%; Exp. ΔGbind [5]: -9.38 kcal/mol; Exp. ΔGbind [4]: -8.31 kcal/mol
CCCCCCCCCCCCc1ccc(S(=O)(=O)Nc2nnc(C(=O)OCC)s2)cc1 [GAB-017] | – | – | – | inhibition at 20 µM ([1]; T47D, 4 h): > 80%; Exp. ΔGbind [4]: -8.47 kcal/mol
CCCCCCCCCCCCc1ccc(S(=O)(=O)Nc2nnc(S(N)(=O)=O)s2)cc1 [GAB-018] | – | 185 ± 2.5 µM | – | killing of T47D at 50 μM [2]: did not effectively kill; killing of MDA-MB-231 at 50 μM [3]: did not effectively kill; inhibition at 20 µM ([1]; T47D, 4 h): 71%; Ki [4, 9]: 36.6 ± 5 µM
CCc1ccc(C(=O)OC)cc1CSc1nnc(-c2ccc(C(F)(F)F)cc2)n1Cc1ccoc1 [GAB-019] | 91% | 39.4 ± 6.2 µM | – | –
CCCCCCCCCCCCc1ccc(S(=O)(=O)Nc2nncs2)cc1 [GAB-020] | 87% | – | – | –
